Test results as given in patent US10195185B2, “3-(1H-imidazo[4,5-C]pyridin-2-yl)-1H-pyrazolo[4,3-B]pyridines and therapeutic uses thereof” (Samumed, LLC, priority 2015, dated 2019).
pEC50: −log10 of the molar value.

Columns and labels:
Format in all cases: cell-based
[1] = tested on: Wnt activity (Wnt-responsive human Sp5 promoter, TCF/LEF binding sites) in SW480 colon carcinoma cells; assay: Wnt activity screening assay: Sp5-Luc luciferase reporter gene in SW480 cells; details: for pEC50: 10-point dose-response from 10 μM, incubated overnight; for inhibition at 10 µM: given for EC50 of >10 μM, read-out: percent inhibition at 10 μM
Outline: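 Luminescence read-out (BrightGlo) from stable Sp5-Luc SW480 cells, normalized to DMSO-only wells. Cells were treated overnight at 37° C in 1% FBS medium across a 1:3, 10-point series starting at 10 μM. EC50 from variable-slope four-parameter regression; percent inhibition at 10 μM given where EC50 >10 μM.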

[2] = tested on: SW480 colon cancer cells; assay: Cell viability assay (CellTiter-Blue), four days; details: Homo sapiens, 96 h; for pEC50: CellTiter-Blue cell viability; for inhibition at 10 µM: read-out: percent inhibition at 10 μM (given for EC50 of >10 μM)
Outline: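 SW480 cells (~2×10^3 per well) were exposed to compound for four days at 37 °C/5% CO2, using 8-point 1:3 dilutions from 10 μM to 0.0045 μM in duplicate. Viability was read by resazurin reduction (CellTiter-Blue, ~3 h, Ex 560/Em 590 nm). EC50 came from non-linear regression; above 10 μM, percent inhibition at 10 μM is given.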

[3] = tested on: Primary human fibroblasts derived from IPF patients (LL29 cells) treated with TGF-β1; assay: Inhibition of the fibrotic process: αSMA staining in TGF-β1 treated fibroblasts; details: Fibroblast, 96 h, LL29 fibroblasts treated with TGF-β1, 4 days; for inhibition at 10 µM: read-out: percent inhibition in brackets beside EC50 >10 μM
Outline: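 LL29 cells plated in F12 with 1% FBS, compounds added as 11-point 1:2 series (10 μM to 1.87 nM, 0.1% DMSO), then TGF-β1 20 ng/mL; 4 days at 37 °C. Fixed, αSMA immunostained, imaged; SYTOX-positive cells excluded. % αSMA-positive cells normalized to TGF-β1 wells; EC50 by non-linear regression, or % inhibition at 10 μM.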

Row | Structure (SMILES) | pEC50 [1] | pEC50 [2] | pEC50 [3] | inhibition at 10 µM [1] | inhibition at 10 µM [2] | inhibition at 10 µM [3]
1 | Cc1ccc(-c2nccc3[nH]c(-c4n[nH]c5ccc(-c6cncc(N)c6)nc45)nc23)s1 [Compound 395, 5-(3-(4-(5-Methylthiophen-2-yl)-1H-imidazo[4,5-c]pyridin-2-yl)-1H-pyrazolo[4,3-b]pyridin-5-yl)pyridin-3-amine] | 7.30 | 6.81 | 5.29 | – | – | –
2 | CN(C)Cc1cncc(-c2ccc3[nH]nc(-c4nc5c(-c6cccc(F)c6)nccc5[nH]4)c3n2)c1 [Compound 13, 1-(5-(3-(4-(3-Fluorophenyl)-1H-imidazo[4,5-c]pyridin-2-yl)-1H-pyrazolo [4,3-b]pyridin-5-yl)pyridin-3-yl)-N,N-dimethylmethanamine] | 5.97 | 6.19 | 5.77 | – | – | –
3 | CN(C)c1cncc(-c2ccc3[nH]nc(-c4nc5c(-c6cccs6)nccc5[nH]4)c3n2)c1 [Compound 343, N,N-Dimethyl-5-(3-(4-(thiophen-2-yl)-1H-imidazo[4,5-c]pyridin-2-yl)-1H-pyrazolo[4,3-b]pyridin-5-yl)pyridin-3-amine] | 6.10 | 6.34 | 6.32 | – | – | –
4 | O=C(Nc1cncc(-c2ccc3[nH]nc(-c4nc5c(-c6cccs6)nccc5[nH]4)c3n2)c1)C1CC1 [Compound 356, N-(5-(3-(4-(Thiophen-2-yl)-1H-imidazo[4,5-c]pyridin-2-yl)-1H-pyrazolo [4,3-b]pyridin-5-yl)pyridin-3-yl)cyclopropanecarboxamide] | < 5.00 | < 5.00 | 5.25 | 4.1% | 1.5% | –
5 | Oc1cncc(-c2ccc3[nH]nc(-c4nc5c(-c6cccc(F)c6)nccc5[nH]4)c3n2)c1 [Compound 517, 5-(3-(4-(3-Fluorophenyl)-1H-imidazo[4,5-c]pyridin-2-yl)-1H-pyrazolo[4,3-b]pyridin-5-yl)pyridin-3-ol] | 6.28 | < 5.00 | 5.81 | – | 3.5% | –
6 | COc1cncc(-c2ccc3[nH]nc(-c4nc5c(-c6cccc(F)c6)nccc5[nH]4)c3n2)c1 [Compound 516, 3-(4-(3-Fluorophenyl)-1H-imidazo[4,5-c]pyridin-2-yl)-5-(5-methoxypyridin-3-yl)-1H-pyrazolo[4,3-b]pyridine] | 5.89 | 6.49 | 7.03 | – | – | –
7 | Fc1cccc(-c2nccc3[nH]c(-c4n[nH]c5ccc(-c6ccncc6)nc45)nc23)c1 [Compound 18, 3-(4-(3-Fluorophenyl)-1H-imidazo[4,5-c]pyridin-2-yl)-5-(pyridin-4-yl)-1H-pyrazolo[4,3-b]pyridine] | 6.07 | 5.56 | 5.38 | – | – | –
8 | NC1CN(c2cncc(-c3ccc4[nH]nc(-c5nc6c(-c7cccc(F)c7)nccc6[nH]5)c4n3)n2)C1 [Compound 510, 1-(6-(3-(4-(3-Fluorophenyl)-1H-imidazo[4,5-c]pyridin-2-yl)-1H-pyrazolo [4,3-b]pyridin-5-yl)pyrazin-2-yl)azetidin-3-amine] | < 5.00 | 5.03 | < 5.00 | 16.3% | – | 10.3%
9 | c1ccc(COc2cncc(-c3ccc4[nH]nc(-c5nc6c(-c7ccncc7)nccc6[nH]5)c4n3)c2)cc1 [Compound 582, 5-(5-(Benzyloxy)pyridin-3-yl)-3-(4-(pyridin-4-yl)-1H-imidazo[4,5-c]pyridin-2-yl)-1H-pyrazolo[4,3-b]pyridine] | < 5.00 | < 5.00 | < 5.00 | 18.1% | 10.9% | 0%
10 | Cn1cc(-c2ccc3[nH]nc(-c4nc5c(-c6cccc(F)c6)nccc5[nH]4)c3n2)cn1 [Compound 508, 3-(4-(3-Fluorophenyl)-1H-imidazo[4,5-c]pyridin-2-yl)-5-(1-methyl-1H-pyrazol-4-yl)-1H-pyrazolo[4,3-b]pyridine] | 6.94 | 5.66 | 6.97 | – | – | –
11 | CS(=O)(=O)NCc1cc(F)cc(-c2nccc3[nH]c(-c4n[nH]c5ccc(-c6cncnc6)nc45)nc23)c1 [Compound 503, N-(3-Fluoro-5-(2-(5-(pyrimidin-5-yl)-1H-pyrazolo[4,3-b]pyridin-3-yl)-1H-imidazo[4,5-c]pyridin-4-yl)benzyl)methanesulfonamide] | < 5.00 | < 5.00 | < 5.00 | 18.7% | 0.8% | 0%
12 | CN(C)CCNc1cc(F)cc(-c2nccc3[nH]c(-c4n[nH]c5ccc(-c6ccccn6)nc45)nc23)c1 [Compound 476, N^1-(3-Fluoro-5-(2-(5-(pyridin-2-yl)-1H-pyrazolo[4,3-b]pyridin-3-yl)-1H-imidazo[4,5-c]pyridin-4-yl)phenyl)-N^2,N^2-dimethylethane-1,2-diamine] | 5.06 | 5.20 | 5.76 | – | – | –
13 | CS(=O)(=O)NCc1cc(F)cc(-c2nccc3[nH]c(-c4n[nH]c5ccc(-c6cncc(NC(=O)c7ccccc7)c6)nc45)nc23)c1 [Compound 487, N-(5-(3-(4-(3-Fluoro-5-(methylsulfonamidomethyl)phenyl)-1H-imidazo[4,5-c]pyridin-2-yl)-1H-pyrazolo[4,3-b]pyridin-5-yl)pyridin-3-yl)benzamide] | < 5.00 | < 5.00 | < 5.00 | 0% | 0% | 0%
14 | CCCC(=O)Nc1cncc(-c2ccc3[nH]nc(-c4nc5c(-c6cc(F)cc(CNS(C)(=O)=O)c6)nccc5[nH]4)c3n2)c1 [Compound 493, N-(5-(3-(4-(3-Fluoro-5-(methylsulfonamidomethyl)phenyl)-1H-imidazo[4,5-c]pyridin-2-yl)-1H-pyrazolo[4,3-b]pyridin-5-yl)pyridin-3-yl)butyramide] | < 5.00 | < 5.00 | < 5.00 | 15.1% | 4.3% | 0%
15 | Cc1ccncc1-c1ccc2[nH]nc(-c3nc4c(-c5cc(F)cc(CNS(C)(=O)=O)c5)nccc4[nH]3)c2n1 [Compound 481, N-(3-Fluoro-5-(2-(5-(4-methylpyridin-3-yl)-1H-pyrazolo[4,3-b]pyridin-3-yl)-1H-imidazo[4,5-c]pyridin-4-yl)benzyl)methanesulfonamide] | 5.62 | 5.15 | 5.30 | – | – | –
16 | CN(C)Cc1cncc(-c2ccc3[nH]nc(-c4nc5c(-c6cccs6)nccc5[nH]4)c3n2)c1 [Compound 349, N,N-dimethyl-1-(5-(3-(4-(thiophen-2-yl)-1H-imidazo[4,5-c]pyridin-2-yl)-1H-pyrazolo[4,3-b]pyridin-5-yl)pyridin-3-yl)methanamine] | 5.10 | 5.90 | 5.58 | – | – | –
17 | CCCCC(=O)Nc1cncc(-c2ccc3[nH]nc(-c4nc5c(-c6cc(F)cc(NCCN(C)C)c6)nccc5[nH]4)c3n2)c1 [Compound 467, N-(5-(3-(4-(3-((2-(Dimethylamino)ethyl)amino)-5-fluorophenyl)-1H-imidazo[4,5-c]pyridin-2-yl)-1H-pyrazolo[4,3-b]pyridin-5-yl)pyridin-3-yl)pentanamide] | < 5.00 | < 5.00 | 5.92 | 0% | 0% | –
18 | Fc1cccc(-c2nccc3[nH]c(-c4n[nH]c5ccc(C6=CCNCC6)nc45)nc23)c1 [Compound 506, 3-(4-(3-Fluorophenyl)-1H-imidazo[4,5-c]pyridin-2-yl)-5-(1,2,3,6-tetrahydropyridin-4-yl)-1H-pyrazolo[4,3-b]pyridine] | < 5.00 | < 5.00 | 5.93 | 17.6% | 0% | –
19 | CC(C)CC(=O)Nc1cncc(-c2ccc3[nH]nc(-c4nc5c(-c6cccc(F)c6)nccc5[nH]4)c3n2)c1 [Compound 2, N-(5-(3-(4-(3-Fluorophenyl)-1H-imidazo[4,5-c]pyridin-2-yl)-1H-pyrazolo [4,3-b]pyridin-5-yl)pyridin-3-yl)-3-methylbutanamide] | 5.06 | 5.57 | < 5.00 | – | – | 25.1%
20 | c1cc2[nH]c(-c3n[nH]c4ccc(-c5cncc(OCCN6CCCC6)c5)nc34)nc2c(N2CCCCC2)n1 [Compound 610, 3-(4-(Piperidin-1-yl)-1H-imidazo[4,5-c]pyridin-2-yl)-5-(5-(2-(pyrrolidin-1-yl)ethoxy)pyridin-3-yl)-1H-pyrazolo[4,3-b]pyridine] | < 5.00 | 5.01 | < 5.00 | 46.2% | – | 0%
21 | Fc1cccc(-c2nccc3[nH]c(-c4n[nH]c5ccc(-c6cncc(OCCN7CCCC7)c6)nc45)nc23)c1 [Compound 514, 3-(4-(3-Fluorophenyl)-1H-imidazo[4,5-c]pyridin-2-yl)-5-(5-(2-(pyrrolidin-1-yl)ethoxy)pyridin-3-yl)-1H-pyrazolo[4,3-b]pyridine] | 5.61 | 5.46 | 5.75 | – | – | –
